Laboratory results taken from PMC5623949, “Exploiting the 2-Amino-1,3,4-thiadiazole Scaffold To Inhibit Trypanosoma brucei Pteridine Reductase in Support of Early-Stage Drug Discovery” (ACS Omega, 2017).

Tested on: THP-1-derived macrophages
Experiment: Cytotoxicity against THP-1 macrophages (MTT)
Format: cell-based, human
Conditions: 100 μM
Method: The effect of compounds 3k, 4h, 4m, and 4o on THP-1-derived macrophages was assessed by the colorimetric MTT assay [3-(4,5-dimethylthiazol-2-yl)-2,5-diphenyl tetrazolium bromide]. Briefly, 1 × 10^6 THP-1 cells were differentiated into macrophages by addition of 20 ng/mL of phorbol-myristate 13-acetate (PMA, Sigma-Aldrich) for 18 h, followed by replacement with a fresh medium and further incubation for 24 h. The cells were incubated with compounds ranging from 100 to 3 μM after dilution in the RPMI complete medium containing a maximum amount of 1% DMSO. After incubation for 72 h at 37 °C and 5% CO2, the medium was removed and 0.5 mg/mL MTT solution was added. The plates were incubated for 4 additional hours to allow viable cells to convert MTT into a purple formazan product. Solubilization of formazan crystals was achieved by addition of 2-propanol, and absorbance was read at 570 nm using a Synergy 2 multi-mode reader (BioTek).

## Nc1nnc(NCc2ccc(-c3ccccc3)cc2)s1 [4m]
  toxicity in THP-1 cells alone vs combination with equimolar MTX: no increase in toxicity
